Measured values: patent publication US12673041B2, “4-aminobut-2-enamide derivatives and salt thereof” (TAIHO PHARMACEUTICAL CO., LTD., priority 2019, dated 2026)

Columns and labels:
[1] = target: Gppcp-bound recombinant K-Ras4B G12C mutant protein (amino acids 1-169, C51S/C80L/C118S) (Homo sapiens, UniProt P01116, C118S/C51S/C80L/G12C); assay: KRASG12C binding assay (LC-MS compound binding rate); details: test compound final concentration 0.5 μM, 25° C., 1 hour
Procedure: As test compounds for the KRASG12C binding assay, the compounds obtained in the “Preparation of Compounds” section were used. Sample solutions each containing a test compound were prepared in the form of a 10 mM DMSO solution.
Gppcp-bound recombinant K-Ras4B G12C mutant protein (amino acids 1-169, C51S/C80L/C118S, SEQ ID NO:1) was diluted with a buffer (1×TBS, 0.1 mM TCEP, 0.25 mM MgCl2, 50 μM Gppcp) to prepare a 50 nM protein solution. K-Ras4B is the major splicing variant of K-Ras. Amino acid sequence of residues 1 to 150 including the compounds' binding region of K-Ras4B is exactly same as that of K-Ras4A, the other splicing variant (Oncotarget. 2016 Jul. 19; 7(29): 46717-46733). A sample solution containing 10 mM test compound was diluted ten-fold with DMSO to make a 1 mM sample solution, and then diluted twenty-fold with DMSO to make a 50 μM sample solution. 1 μL of a 50 μM sample solution was added to 100 μL of a 50 nM protein solution to adjust the final concentration of a test compound to be 0.5 μM in the mixture. The mixtures were stored in an incubator at 25° C. for 1 hour, and 10 μL of a 1×TBS solution containing 2% formic acid was added to stop the reaction, followed by LC-MS measurement. LC-MS measurement was performed using Xevo G2-S Q-Tof manufactured by Waters, and reverse-phase chromatography was performed with a desalting column. A mass spectrum of positive ions was obtained by electrospray. For a mass spectrum, a spectrum of polyvalent ions was collectively converted to a molecular weight by using OpenLynx software by the MaxEnt technique, and a compound binding rate was calculated from the ratio of the signal intensity of a peak that corresponds to the molecular weight of the protein to the signal intensity of a peak that corresponds to the molecular weight of the protein conjugated with the compound.
The binding assay of the test compounds was conducted at a final concentration of 0.5 μM. A binding rate of 80% or more is rated “A”, a binding rate of 60% or more and less than 80% is rated “B”, a binding rate of 40% or more and less than 60% is rated “C”, a binding rate of 20% or more and less than 40% is rated “D”, and a binding rate of less than 20% is rated “E”. N.D.=not determined. Binding rate % is the ratio of KRAS signal intensity at the molecular weight of one molecule adduct to the sum of all the KRAS signal intensity (unbound form and adducts) in mass spectrum.
Thus, binding rate 100% means that only the one molecule adduct was observed without any unbound KRAS.

[2] = target: T1, GMPPNP-bound KRAS G12C protein and cRAF RAS-binding domain (cRAF-RBD) (Homo sapiens, UniProt P01116, G12C); assay: Inhibitory activity on interaction between KRAS G12C and cRAF (Alpha technology); assay type: biochemical; details: GMPPNP-bound KRAS G12C incubated with compound at 25° C. for 1 hour, then cRAF-RBD, Alpha signal; read-out: IC50
T1 construct: made in house; host or cells: E. coli
Procedure: Interaction between recombinant K-Ras4B G12C mutant protein (amino acids 1-169, SEQ ID NO:2) and cRAF RAS-binding domain (cRAF-RBD, amino acids 50-132, Jena Biosciences GmbH) was measured using Alpha technology (PerkinElmer Inc.).
Recombinant KRAS G12C protein with an N-terminal His-tag was expressed in E. coli and purified by affinity chromatography. To prepare GTP-bound form and GDP-bound form of KRAS G12C protein, 50 μM KRAS G12C protein was incubated with 1 mM GMPPNP (Guanosine-5′-[(β,γ)-imido]triphosphate, Tetralithium salt) (Jena Bioscience GmbH) and 1 mM GDP, respectively, in a loading buffer (20 mM Tris-HCl (pH 7.5), 50 mM NaCl, 1 mM DTT and 2.5 mM EDTA) for 1 hour on ice. After the incubation, MgCl2 was added to a final concentration of 10 mM, followed by incubation at room temperature for 30 minutes. The mixture was allowed to pass through a NAP-5 column to remove free nucleotides and purified, and the resultant nucleotide-bound KRAS G12C protein was used for compound evaluation.
For the measurement of the inhibitory activity of compounds on interaction between KRAS G12C and cRAF-RBD, GMPPNP-bound KRAS G12C protein was incubated with various concentrations of compound in a reaction buffer (20 mM Tris-HCl (pH 7.5), 100 mM NaCl, 1 mM MgCl2, 1 mM TCEP, 0.1% Tween 20) at 25° C. for 1 hour. After the incubation, recombinant cRAF-RBD and Alpha detection reagents were added and incubated at room temperature for 1.5 hours for binding. Interaction 5 of KRAS G12C and cRAF-RBD was monitored by measuring Alpha signal. Inhibition % was calculated using the signal from the reaction without test compound (DMSO control) as 0% inhibition and the signal from the reaction using GDP-bound KRAS G12C in place of GMPPNP-bound KRAS G12C as 100% inhibition. IC50 values were calculated from dose titration curve using curve fitting by XLfit software (IDBS).

Row | IC50 [2] [nM] | SMILES | binding rate [1]
1 | 210 | CO[C@H]1CC[C@H](NC/C=C/C(=O)Nc2ccc(C(=O)c3ccc4c(-c5c(Cl)cc6c(ncn6C)c5Cl)cccn34)cc2C#N)CC1 (single isomer, unassigned) [Example 63, (E)-N-(2-cyano-4-(8-(4,6-dichloro-1-methyl-1H-benzo[d]imidazol-5-yl)indolizine-3-carbonyl)phenyl)-4-(((1r,4r)-4-methoxycyclohexyl)amino)but-2-enamide] | A (A binding rate of 80% or more is rated “A”)
2 | 20000 | O=C(/C=C/CN[C@H]1CC[C@H](O)CC1)Nc1ccc(C(=O)Nc2cccc(Br)c2)cn1 [Comparative example 1, N-(3-bromophenyl)-6-((E)-4-(((1r,4r)-4-hydroxycyclohexyl)amino)but-2-enamido)nicotinamide, reference compound] | E (a binding rate of less than 20% is rated “E”)
3 | 15000 | C=CC(=O)Nc1ccc(C(=O)Nc2cccc(-c3cc4nc(COC)n(C)c4cc3C(F)(F)F)c2)cc1C#N [Comparative example 2, reference compound] | E (a binding rate of less than 20% is rated “E”)
4 | 880 | CCc1nc2cc(-c3cccc(NC(=O)c4ccc(NC(=O)/C=C/CN(C)C(C)(C)C)c(C#N)c4)c3)c(C(F)(F)F)cc2n1C [Example 2, (E)-4-(4-(tert-butyl(methyl)amino)but-2-enamido)-3-cyano-N-(3-(2-ethyl-1-methyl-6-(trifluoromethyl)-1H-benzo[d]imidazol-5-yl)phenyl)benzamide] | D (a binding rate of 20% or more and less than 40% is rated “D”)
5 | 190 | CCc1nc2cc(-c3cccc4c3CCN4C(=O)c3ccc(NC(=O)/C=C/CN[C@H]4CC[C@H](OC)CC4)c(C#N)c3)c(C(F)(F)F)cc2n1C [Example 10, (E)-N-(2-cyano-4-(4-(2-ethyl-1-methyl-6-(trifluoromethyl)-1H-benzo[d]imidazol-5-yl)indoline-1-carbonyl)phenyl)-4-(((1r,4r)-4-methoxycyclohexyl)amino)but-2-enamide] | A (A binding rate of 80% or more is rated “A”)
6 | 630 | COc1ccc(Cl)c(-c2cccc(NC(=O)c3ccc(NC(=O)/C=C/CNC4CCN(S(C)(=O)=O)CC4)c(C#N)c3)c2)c1OC [Example 11, (E)-N-(6′-chloro-2′,3′-dimethoxy-[1,1′-biphenyl]-3-yl)-3-cyano-4-(4-((1-(methylsulfonyl)piperidin-4-yl)amino)but-2-enamido)benzamide] | B (a binding rate of 60% or more and less than 80% is rated “B”)
7 | 270 | CCN(CC)[C@H]1CC[C@H](NC/C=C/C(=O)Nc2ccc(C(=O)Nc3cccc(-c4c(Cl)ccc5c4cnn5C)c3)cc2C#N)CC1 [Example 12, N-(3-(5-chloro-1-methyl-1H-indazol-4-yl)phenyl)-3-cyano-4-((E)-4-(((1r,4r)-4-(diethylamino)cyclohexyl)amino)but-2-enamido)benzamide] | B (a binding rate of 60% or more and less than 80% is rated “B”)
8 | 410 | CCN(CC)[C@H]1CC[C@H](NC/C=C/C(=O)Nc2ccc(C(=O)Nc3cccc(-c4cc5nc(C)n(C)c5cc4Cl)c3)cc2F)CC1 [Example 13, N-(3-(6-chloro-1,2-dimethyl-1H-benzo[d]imidazol-5-yl)phenyl)-4-((E)-4-(((1r,4r)-4-(diethylamino)cyclohexyl)amino)but-2-enamido)-3-fluorobenzamide] | B (a binding rate of 60% or more and less than 80% is rated “B”)
9 | 830 | O=C(/C=C/CN[C@H]1CC[C@H](O)CC1)Nc1ccc(C(=O)Nc2cccc(-c3cc4nc[nH]c4cc3Cl)c2)cn1 [Example 14, N-(3-(6-chloro-1H-benzo[d]imidazol-5-yl)phenyl)-6-((E)-4-(((1r,4r)-4-hydroxycyclohexyl)amino)but-2-enamido)nicotinamide] | D (a binding rate of 20% or more and less than 40% is rated “D”)
10 | 200 | CCc1nc2c(Cl)c(-c3cccc(NC(=O)c4ccc(NC(=O)/C=C/CN[C@H]5CC[C@H](OC)CC5)c(C#N)c4)c3)c(C(F)(F)F)cc2n1C [Example 15, N-(3-(4-chloro-2-ethyl-1-methyl-6-(trifluoromethyl)-1H-benzo[d]imidazol-5-yl)phenyl)-3-cyano-4-((E)-4-(((1r,4r)-4-methoxycyclohexyl)amino)but-2-enamido)benzamide] | A (A binding rate of 80% or more is rated “A”)
11 | 700 | CO[C@H]1CC[C@H](NC/C=C/C(=O)Nc2ccc(C(=O)Nc3cccc(-c4cc5ncsc5cc4C)c3)cc2C#N)CC1 [Example 16, 3-cyano-4-((E)-4-(((1r,4r)-4-methoxycyclohexyl)amino)but-2-enamido)-N-(3-(6-methylbenzo[d]thiazol-5-yl)phenyl)benzamide] | C (a binding rate of 40% or more and less than 60% is rated “C”)
12 | 75 | CS(=O)(=O)N1CCC(NC/C=C/C(=O)Nc2ccc(C(=O)Nc3cccc(-c4cc5nccn5cc4Cl)c3)cc2C#N)CC1 [Example 17, (E)-N-(3-(6-chloroimidazo[1,2-a]pyridin-7-yl)phenyl)-3-cyano-4-(4-((1-(methylsulfonyl)piperidin-4-yl)amino)but-2-enamido)benzamide] | B (a binding rate of 60% or more and less than 80% is rated “B”)
13 | 140 | CO[C@H]1CC[C@H](NC/C=C/C(=O)Nc2ccc(C(=O)Nc3cc(F)c(F)c(-c4cc5ncn(C)c5cc4C)c3)cc2C#N)CC1 [Example 18, 3-cyano-N-(3-(1,6-dimethyl-1H-benzo[d]imidazol-5-yl)-4,5-difluorophenyl)-4-((E)-4-(((1r,4r)-4-methoxycyclohexyl)amino)but-2-enamido)benzamide] | A (A binding rate of 80% or more is rated “A”)
14 | 34 | CCN(CC)[C@H]1CC[C@H](NC/C=C/C(=O)Nc2ccc(C(=O)Nc3cccc(-c4cc5ncn(C)c5cc4Cl)c3)cc2C#N)CC1 [Example 19, N-(3-(6-chloro-1-methyl-1H-benzo[d]imidazol-5-yl)phenyl)-3-cyano-4-((E)-4-(((1r,4r)-4-(diethylamino)cyclohexyl)amino)but-2-enamido)benzamide] | A (A binding rate of 80% or more is rated “A”)
15 | 150 | Cc1nc2c(Cl)c(-c3cccc(NC(=O)c4ccc(NC(=O)/C=C/CNC5CCC(F)(F)CC5)c(C#N)c4)c3)c(Cl)cc2n1C [Example 20, (E)-3-cyano-N-(3-(4,6-dichloro-1,2-dimethyl-1H-benzo[d]imidazol-5-yl)phenyl)-4-(4-((4,4-difluorocyclohexyl)amino)but-2-enamido)benzamide] | A (A binding rate of 80% or more is rated “A”)
